From patent US20250154088A1, “PRODUCT 1,3-BUTYLENE GLYCOL” (KH Neochem Co., Ltd., priority 2022, published 2025) come the findings set out here.

Series [1] deals with cysteine-containing peptide for DPRA. In words: Skin sensitization test (direct peptide reactivity assay, DPRA). As to conditions: HPLC after 72±2 hours, relative value with result of Comparative Example 1 regarded as 100. An excerpt:
The product 1, 3-butylene glycol in the present embodiment causes less skin sensitization. Here, the skin sensitization refers to the occurrence of an allergic reaction after the product 1, 3-butylene glycol comes into contact with the skin. In the evaluation of skin sensitization, it has been normal to use experimental animals, but the direct peptide reactivity assay (DPRA), which is an in Chemico test, was adopted as an alternative test in OECD guideline TG442C in 2015 from the viewpoint of animal welfare, and, in the present embodiment as well, the skin sensitization is evaluated by a test in which DPRA is used. In more detail, the skin sensitization is evaluated according to a method described in examples to be described below.
The product 1, 3-butylene glycols obtained in Examples 1 to 3 and Comparative Example 1 were evaluated for skin sensitization according to the following method.
15 mg of cysteine-containing peptide for DPRA manufactured by Scrum Inc. and 30 mL of a 0.05 M phosphate buffer were mixed together, thereby preparing a 0.05 M phosphate buffer solution containing 0.667 mM of the peptide (hereinafter, peptide solution). After one hour elapsed from the preparation of the peptide solution, 750 μL of the peptide solution and 250 μL of acetonitrile were put into each of three brown sample bottles for HPLC, thereby preparing three reference solutions. After two hours elapsed from the preparation of the reference solutions, 750 μL of the peptide solution, 200 μL of acetonitrile and 50 μL of 1, 3-butylene glycol were put into a separate brown sample bottle for HPLC, thereby preparing a specimen solution (specimen solution 1). Furthermore, after four hours elapsed and six hours elapsed from the preparation of the reference solutions, specimen solutions were prepared by the same operation (specimen solution 2 and specimen solution 3). Each of the three reference solutions and the specimen solutions (specimen solution 1, specimen solution 2 and specimen solution 3) was measured by an HPLC analysis after 72±2 hours elapsed from the preparation of each solution, and the three-time average value of the peak heights of peptide in each of the reference solutions and the specimen solutions was calculated. A peptide reduction percentage was calculated from the calculated three-time average value using the following formula (3) and regarded as an evaluation result.
In the present test, a specimen solution of the product 1, 3-butylene glycol of Comparative Example 1 that served as a reference and a specimen solution of the product 1, 3-butylene glycol of each of Examples 1 to 3 were each tested on the same day from the viewpoint of reproducibility.
Analysis device: Agilent 1260 InfinityII manufactured by Agilent Technologies, Inc. […]

Another series in a line: Basic coloration test. It counts as physicochemical. Conditions: with water and potassium hydroxide, heat treatment at 90° C. for one hour, cooled to room temperature; spectral colorimeter. From the text:
The product 1, 3-butylene glycol in the present embodiment has an advantage of not easily coloring under a basic condition. Coloration under a basic condition can be evaluated by a method described in examples to be described below (basic coloration test). The color saturation (b*) of the CIE color space (JIS Z 8729) when the product 1, 3-butylene glycol of the present embodiment has been evaluated by the method is not particularly limited; however, for example, the average value of three times of measurement is preferably 4.0 or less, more preferably 3.8 or less and particularly preferably 3.5 or less.
The product 1, 3-butylene glycols obtained in Examples 1 to 3 and Comparative Example 1 were evaluated for coloration under a basic condition according to the following method.
13 g of water and 2 g of potassium hydroxide were added to a 100 mL heat-resistant medium bottle and mixed together, and 6 g of the product 1, 3-butylene glycol, which was a subject, was further added thereto. Next, the heat-resistant medium bottle was immersed in a water bath, and a heat treatment was performed at 90° C. for one hour. After the solution that had been subjected to the heat treatment was cooled to room temperature, the color saturation (b*) of the solution was measured with a spectral colorimeter SE2000 manufactured by Nippon Denshoku Industries Co., Ltd. and regarded as a grade.

On to `CC(O)CCO` (centres unmarked) [Example 3, 1,3-butylene glycol], for which, in series [1], the “Relative value of peptide reduction percentage” value is listed as 22. Besides, the “Color saturation (b*)” value in the series “Basic coloration test” is recorded as 0.7.

As to `CC(O)CCO` (centres unmarked) [Comparative Example 1, 1,3-butylene glycol], in series [1], the “Relative value of peptide reduction percentage” value was 100. Besides, the “Color saturation (b*)” value in “Basic coloration test” is reported as 19.6.

As to `CC(O)CCO` (centres unmarked) [Example 2, 1,3-butylene glycol], in series [1], the “Relative value of peptide reduction percentage” value is 43. The “Color saturation (b*)” value in “Basic coloration test” is given as 3.2.

For `CC(O)CCO` (centres unmarked) [Example 1, 1,3-butylene glycol], in series [1], the “Relative value of peptide reduction percentage” value is 45. For the same molecule, the “Color saturation (b*)” value in the series “Basic coloration test” was found to be 2.8.
